According to PubChem BioAssay AID2060505 (Molecular Pharmacology Branch, DTP, NCI, 2025):

Tested on: 633275-114-R-J1-PDC complex spheroids, viability
Experiment: Anticancer human tumor 633275-114-R-J1-PDC patient-derived endometrial adenocarcinoma cell line growth inhibition [GQUAD]
Conditions: for IC50: curve of first compound; for viability, T/C: stronger effect = lower value
In short: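 Viability of tumor cells grown as complex spheroids with endothelial and stromal cells, exposed to drug combinations. Top concentration at or near clinical Cmax (else 10 microM), diluted in half-log increments.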

[1] = second compound 0.0316 µM, first compound 0.0316 µM
[2] = second compound 0.0316 µM, first compound 0.1 µM
[3] = second compound 0.0316 µM, first compound 0.316 µM
[4] = second compound 0.0316 µM, first compound 1 µM
[5] = second compound 0.0316 µM, first compound 3.16 µM
[6] = second compound 0.0316 µM, first compound 10 µM
[7] = second compound 0.1 µM, first compound 0.0316 µM
[8] = second compound 0.1 µM, first compound 0.1 µM
[9] = second compound 0.1 µM, first compound 0.316 µM
[10] = second compound 0.1 µM, first compound 1 µM
[11] = second compound 0.1 µM, first compound 3.16 µM
[12] = second compound 0.1 µM, first compound 10 µM
[13] = second compound 0.316 µM, first compound 0.0316 µM
[14] = second compound 0.316 µM, first compound 0.1 µM
[15] = second compound 0.316 µM, first compound 0.316 µM
[16] = second compound 0.316 µM, first compound 1 µM
[17] = second compound 0.316 µM, first compound 3.16 µM
[18] = second compound 0.316 µM, first compound 10 µM
[19] = second compound 1 µM, first compound 0.0316 µM
[20] = second compound 1 µM, first compound 0.1 µM
[21] = second compound 1 µM, first compound 0.316 µM
[22] = second compound 1 µM, first compound 1 µM
[23] = second compound 1 µM, first compound 3.16 µM
[24] = second compound 1 µM, first compound 10 µM
[25] = second compound 3.16 µM, first compound 0.0316 µM
[26] = second compound 3.16 µM, first compound 0.1 µM
[27] = second compound 3.16 µM, first compound 0.316 µM
[28] = second compound 3.16 µM, first compound 1 µM
[29] = second compound 3.16 µM, first compound 3.16 µM
[30] = second compound 3.16 µM, first compound 10 µM
[31] = second compound 10 µM, first compound 0.0316 µM
[32] = second compound 10 µM, first compound 0.1 µM
[33] = second compound 10 µM, first compound 0.316 µM
[34] = second compound 10 µM, first compound 1 µM
[35] = second compound 10 µM, first compound 3.16 µM
[36] = second compound 10 µM, first compound 10 µM
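Further: spheroids exposed to the agents for seven days.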
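Wherever viability, T/C is given: percent of DMSO vehicle control viability which is 100%.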

Compound COc1cccc2c1C(=O)c1c(O)c3c(c(O)c1C2=O)CC(O)(C(=O)CO)CC3OC1CC(N)C(O)C(C)O1 (stereo not drawn) + CN(C)c1ccc(Nc2c3ccc(NC(=O)CCN4CCCC4)cc3nc3cc(NC(=O)CCN4CCCC4)ccc23)cc1 has an IC50 (second compound 0.0316 µM) of 91.8 nM, an IC50 (second compound 0.1 µM) of 77.9 nM and an IC50 (second compound 0.316 µM) of 73.2 nM. The IC50 (second compound 1 µM) was 65.5 nM, the IC50 (second compound 3.16 µM) was 47.1 nM and the IC50 (second compound 10 µM) was < 31.6 nM. The viability, T/C [1] was 62.9%, the viability, T/C [2] was 48.1% and the viability, T/C [3] was 32%. For the same compound, the viability, T/C [4] was 20.6%, the viability, T/C [5] was 1.62% and the viability, T/C [6] was 2.01%. The viability, T/C [7] was 62.7%, the viability, T/C [8] was 45% and the viability, T/C [9] was 31%. It also gave a viability, T/C [10] of 18.3%, a viability, T/C [11] of 1.63% and a viability, T/C [12] of 2.02%. The viability, T/C [13] was 63.6%, the viability, T/C [14] was 43.5% and the viability, T/C [15] was 30.1%. For the same compound, the viability, T/C [16] was 18.9%, the viability, T/C [17] was 2.31% and the viability, T/C [18] was 1.97%. The viability, T/C [19] was 59.1%, the viability, T/C [20] was 42% and the viability, T/C [21] was 33.6%. For the same compound, the viability, T/C [22] was 15.2%, the viability, T/C [23] was 3.04% and the viability, T/C [24] was 1.66%. The viability, T/C [25] was 56.9%, the viability, T/C [26] was 35.7% and the viability, T/C [27] was 29.4%. The viability, T/C [28] was 16.1%, the viability, T/C [29] was 2.59% and the viability, T/C [30] was 1.1%. The viability, T/C [31] was 25.3%, the viability, T/C [32] was 17.3% and the viability, T/C [33] was 10%. It also gave a viability, T/C [34] of 7.22%, a viability, T/C [35] of 0.49% and a viability, T/C [36] of 0.61%.

With CC1COCCN1c1cc(C2(O)CC3CCC(C2)O3)c2cnn(-c3ccn[nH]3)c2n1 (stereo not drawn) + Cc1cnc(CNC(=O)c2c(=O)c3ccc(N4CCCN(C)CC4)nc3n3c2sc2ccccc23)cn1 the IC50 (second compound 0.0316 µM) was < 31.6 nM, the IC50 (second compound 0.1 µM) was < 31.6 nM and the IC50 (second compound 0.316 µM) was < 31.6 nM. For the same compound, the IC50 (second compound 1 µM) was < 31.6 nM, the IC50 (second compound 3.16 µM) was < 31.6 nM and the IC50 (second compound 10 µM) was < 31.6 nM. The viability, T/C [1] was 37.6%, the viability, T/C [2] was 31.2% and the viability, T/C [3] was 25%. It also gave a viability, T/C [4] of 19.6%, a viability, T/C [5] of 12.4% and a viability, T/C [6] of 8.78%. The viability, T/C [7] was 38.3%, the viability, T/C [8] was 28.8% and the viability, T/C [9] was 24.3%. For the same compound, the viability, T/C [10] was 17.5%, the viability, T/C [11] was 11.4% and the viability, T/C [12] was 7.39%. For the same compound, the viability, T/C [13] was 36.4%, the viability, T/C [14] was 33% and the viability, T/C [15] was 25%. The viability, T/C [16] was 15.8%, the viability, T/C [17] was 11.2% and the viability, T/C [18] was 6.81%. For the same compound, the viability, T/C [19] was 29.6%, the viability, T/C [20] was 27.9% and the viability, T/C [21] was 24.2%. It also gave a viability, T/C [22] of 14.8%, a viability, T/C [23] of 10.2% and a viability, T/C [24] of 4.76%. For the same compound, the viability, T/C [25] was 31.6%, the viability, T/C [26] was 25.4% and the viability, T/C [27] was 19.5%. The viability, T/C [28] was 12.9%, the viability, T/C [29] was 9.19% and the viability, T/C [30] was 5.97%. The viability, T/C [31] was 29.4%, the viability, T/C [32] was 24.4% and the viability, T/C [33] was 17%. The viability, T/C [34] was 12.7%, the viability, T/C [35] was 10.2% and the viability, T/C [36] was 0.18%.

With CC(C)n1c(=O)n(C)c2cnc3cc(F)c(-c4ccc(OCCCN5CCCCC5)nc4)cc3c21 + Cc1cnc(CNC(=O)c2c(=O)c3ccc(N4CCCN(C)CC4)nc3n3c2sc2ccccc23)cn1 the IC50 (second compound 0.0316 µM) was > 10000 nM, the IC50 (second compound 0.1 µM) was < 31.6 nM and the IC50 (second compound 0.316 µM) was < 31.6 nM. For the same compound, the IC50 (second compound 1 µM) was < 31.6 nM, the IC50 (second compound 3.16 µM) was < 31.6 nM and the IC50 (second compound 10 µM) was < 31.6 nM. For the same compound, the viability, T/C [1] was 58%, the viability, T/C [2] was 58.5% and the viability, T/C [3] was 52.9%. The viability, T/C [4] was 52.9%, the viability, T/C [5] was 56.4% and the viability, T/C [6] was 54%. For the same compound, the viability, T/C [7] was 44.2%, the viability, T/C [8] was 45.1% and the viability, T/C [9] was 42.9%. It also gave a viability, T/C [10] of 42.2%, a viability, T/C [11] of 49.5% and a viability, T/C [12] of 47.2%. The viability, T/C [13] was 46.6%, the viability, T/C [14] was 42.1% and the viability, T/C [15] was 40.9%. The viability, T/C [16] was 41.6%, the viability, T/C [17] was 46.4% and the viability, T/C [18] was 39.4%. For the same compound, the viability, T/C [19] was 42.7%, the viability, T/C [20] was 37.1% and the viability, T/C [21] was 37.1%. For the same compound, the viability, T/C [22] was 43.5%, the viability, T/C [23] was 39.2% and the viability, T/C [24] was 33.6%. The viability, T/C [25] was 32.2%, the viability, T/C [26] was 34.5% and the viability, T/C [27] was 33.8%. For the same compound, the viability, T/C [28] was 32.3%, the viability, T/C [29] was 33.9% and the viability, T/C [30] was 25.2%. The viability, T/C [31] was 31.3%, the viability, T/C [32] was 32% and the viability, T/C [33] was 32.2%. The viability, T/C [34] was 29.1%, the viability, T/C [35] was 31.4% and the viability, T/C [36] was 9.52%.

Compound CC1COCCN1c1cc(C2(O)CC3CCC(C2)O3)c2cnn(-c3ccn[nH]3)c2n1 (stereo not drawn) + Cc1[nH]c2ccc(F)cc2c1-c1nc2c3cccnc3c3ncccc3c2[nH]1 has an IC50 (second compound 0.0316 µM) of 99.9 nM, an IC50 (second compound 0.1 µM) of 99.1 nM and an IC50 (second compound 0.316 µM) of 90.4 nM. For the same compound, the IC50 (second compound 1 µM) was 82.9 nM, the IC50 (second compound 3.16 µM) was 47.6 nM and the IC50 (second compound 10 µM) was 38.3 nM. For the same compound, the viability, T/C [1] was 80.1%, the viability, T/C [2] was 49.7% and the viability, T/C [3] was 31.2%. It also gave a viability, T/C [4] of 20.5%, a viability, T/C [5] of 14.6% and a viability, T/C [6] of 9.97%. It also gave a viability, T/C [7] of 76.6%, a viability, T/C [8] of 50.4% and a viability, T/C [9] of 30%. The viability, T/C [10] was 20.7%, the viability, T/C [11] was 15.8% and the viability, T/C [12] was 10.3%. It also gave a viability, T/C [13] of 75.3%, a viability, T/C [14] of 46.9% and a viability, T/C [15] of 30.2%. It also gave a viability, T/C [16] of 21.3%, a viability, T/C [17] of 15.4% and a viability, T/C [18] of 9.62%. The viability, T/C [19] was 70.6%, the viability, T/C [20] was 46.3% and the viability, T/C [21] was 28.8%. The viability, T/C [22] was 20.4%, the viability, T/C [23] was 14.9% and the viability, T/C [24] was 9.89%. For the same compound, the viability, T/C [25] was 56.5%, the viability, T/C [26] was 37.9% and the viability, T/C [27] was 26.5%. For the same compound, the viability, T/C [28] was 19.4%, the viability, T/C [29] was 14.7% and the viability, T/C [30] was 9.57%. The viability, T/C [31] was 52.4%, the viability, T/C [32] was 38% and the viability, T/C [33] was 25.7%. The viability, T/C [34] was 18.2%, the viability, T/C [35] was 15.1% and the viability, T/C [36] was 9.9%.
